The values below come from US5880119A, “Mercaptoacetylamino 1,3,4,5-tetrahydro-benzo(C)azepin-2-one disulfide derivatives useful as inhibitors of enkephalinase and ACE” (Merrell Pharmaceuticals Inc., priority 1997, dated 1999).

The target in this assay is T1, ACE (Angiotensin-Converting Enzyme) of rat kidney preparations (Rattus norvegicus, UniProt P47820).
T1 construct: compound- or vehicle-dosed rat kidney preparations; from tissue; host or cells: kidney of male Sprague-Dawley rats
T1 sequence (P47820 36-1313): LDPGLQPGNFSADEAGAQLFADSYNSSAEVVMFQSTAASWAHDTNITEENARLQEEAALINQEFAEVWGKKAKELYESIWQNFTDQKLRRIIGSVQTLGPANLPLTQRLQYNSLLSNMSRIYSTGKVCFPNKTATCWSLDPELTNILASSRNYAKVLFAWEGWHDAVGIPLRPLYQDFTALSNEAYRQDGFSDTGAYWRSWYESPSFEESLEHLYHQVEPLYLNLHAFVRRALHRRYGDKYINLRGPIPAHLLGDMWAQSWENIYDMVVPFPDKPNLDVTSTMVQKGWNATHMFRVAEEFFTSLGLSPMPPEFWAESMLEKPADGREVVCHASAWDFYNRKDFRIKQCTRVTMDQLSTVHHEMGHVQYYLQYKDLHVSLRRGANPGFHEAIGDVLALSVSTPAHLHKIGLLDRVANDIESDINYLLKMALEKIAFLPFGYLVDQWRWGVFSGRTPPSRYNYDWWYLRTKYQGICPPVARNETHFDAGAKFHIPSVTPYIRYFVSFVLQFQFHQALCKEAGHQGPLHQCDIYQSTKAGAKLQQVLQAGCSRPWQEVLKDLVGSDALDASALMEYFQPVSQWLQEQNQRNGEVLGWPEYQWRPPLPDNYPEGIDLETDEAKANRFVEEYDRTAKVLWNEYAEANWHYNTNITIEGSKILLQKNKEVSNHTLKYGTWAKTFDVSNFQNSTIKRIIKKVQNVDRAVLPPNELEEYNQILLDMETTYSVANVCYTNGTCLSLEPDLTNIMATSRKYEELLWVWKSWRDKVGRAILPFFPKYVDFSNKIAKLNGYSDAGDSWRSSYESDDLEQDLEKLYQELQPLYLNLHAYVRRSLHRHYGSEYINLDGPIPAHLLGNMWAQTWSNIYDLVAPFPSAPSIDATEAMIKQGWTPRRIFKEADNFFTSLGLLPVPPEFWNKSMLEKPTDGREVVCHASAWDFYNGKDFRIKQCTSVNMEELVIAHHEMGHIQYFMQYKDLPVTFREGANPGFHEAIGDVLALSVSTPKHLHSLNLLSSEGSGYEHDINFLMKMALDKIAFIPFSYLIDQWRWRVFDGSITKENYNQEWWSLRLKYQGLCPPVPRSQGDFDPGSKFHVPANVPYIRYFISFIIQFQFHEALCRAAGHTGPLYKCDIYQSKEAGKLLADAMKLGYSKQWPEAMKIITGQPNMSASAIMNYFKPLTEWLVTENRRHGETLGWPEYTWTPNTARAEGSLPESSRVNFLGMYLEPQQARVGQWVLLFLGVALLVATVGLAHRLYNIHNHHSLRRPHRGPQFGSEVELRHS
The assay can be described thus: Radiometric ACE activity assay on rat kidney preparations. It counts as biochemical, rat (Sprague-Dawley). Conditions: 1 μM enalaprilat; substrate tritiated hippuryl-glycyl-glycine; compound- or vehicle-dosed rat kidney preparations.

As for `C[C@H](N[C@@H](CCc1ccccc1)C(=O)O)C(=O)N1CCC[C@H]1C(=O)O` [enalaprilat], the “inhibition of radioactive product formation” value is “Complete inhibition”.
